Assay results taken from patent publication US11919902B2, “Aryl-bipyridine amine derivatives as phosphatidylinositol phosphate kinase inhibitors” (HiberCell, Inc., priority 2017, dated 2024).

Key:
[1] = target: T1, PIP4K2A (full length protein, SignalChem) (Homo sapiens, UniProt P48426); assay: Kinase Assay PIP4K2 A (Sprint); ADP-Glo biochemical assay; details: Table 2; compounds listed under IC50 range headings
T1 construct: 4 nM PIP4K2A (full length protein, SignalChem); purchased SignalChem
T1 sequence (P48426 1-406): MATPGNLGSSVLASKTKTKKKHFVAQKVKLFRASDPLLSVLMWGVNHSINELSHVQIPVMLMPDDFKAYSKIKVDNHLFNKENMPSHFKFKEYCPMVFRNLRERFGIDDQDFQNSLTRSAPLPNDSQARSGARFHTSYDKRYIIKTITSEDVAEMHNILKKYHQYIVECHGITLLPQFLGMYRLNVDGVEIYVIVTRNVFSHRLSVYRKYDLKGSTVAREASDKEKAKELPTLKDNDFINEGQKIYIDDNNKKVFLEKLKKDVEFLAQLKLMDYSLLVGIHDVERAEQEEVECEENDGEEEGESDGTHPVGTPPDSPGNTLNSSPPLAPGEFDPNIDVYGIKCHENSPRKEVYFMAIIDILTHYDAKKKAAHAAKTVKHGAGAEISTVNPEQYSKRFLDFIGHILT
Summary of the method: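 Compounds (10-point, 3-fold dilutions) were pre-incubated 15 min at RT with an enzyme/substrate mix of 4 nM full-length PIP4K2A and 100 μM PI(5)P diC8 in 20 mM MOPS pH 7.2, 25 mM MgCl2, 0.005% Tween 20. A 60 μM ATP solution was added, reaction 1 h RT; ADP read by ADP-Glo luminescence, IC50 fitted from % inhibition vs DMSO.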

[2] = target: T2, GST tagged PIP4KtypeIIA (Homo sapiens, UniProt P48426); assay: ADP-glo kinase assay PIP4K 2A (PIP4KtypeIIA inhibition assay); format: biochemical; details: Table 3; compounds listed under IC50 range headings; 10 uM ATP, 0.5 nM PIP4KIIA
T2 construct: made in house; host or cells: E. coli
T2 sequence (P48426 1-406): T1 sequence (P48426 1-406)
Summary of the method: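 E. coli-expressed GST-PIP4KtypeIIA (0.5 nM final) was preincubated 1 h at 27 °C with compound (up to 4.8 μM, 5% DMSO) in PI5P/DOPE lipid in 50 mM HEPES pH 7.3 with 10 mM MgCl2. The reaction was started with 10 μM ATP (final) and run 1 h. ADP was read by ADP-Glo luminescence via a calibration curve, and IC50 was taken from % residual activity.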

[3] = target: T3, GST tagged PIP4KtypeIIB (Homo sapiens, UniProt P78356); assay: Trans-FI P kinase assay PIP4K2B (PIP4KtypeIIB inhibition assay); format: biochemical; details: Table 4; compounds listed under IC50 range headings; 100 uM GTP, 5 nM PIP4KIIB; read-out: Trans-FI P kinase assays: PIP4K2B IC50
T3 construct: made in house; host or cells: E. coli
T3 sequence (P78356 1-416): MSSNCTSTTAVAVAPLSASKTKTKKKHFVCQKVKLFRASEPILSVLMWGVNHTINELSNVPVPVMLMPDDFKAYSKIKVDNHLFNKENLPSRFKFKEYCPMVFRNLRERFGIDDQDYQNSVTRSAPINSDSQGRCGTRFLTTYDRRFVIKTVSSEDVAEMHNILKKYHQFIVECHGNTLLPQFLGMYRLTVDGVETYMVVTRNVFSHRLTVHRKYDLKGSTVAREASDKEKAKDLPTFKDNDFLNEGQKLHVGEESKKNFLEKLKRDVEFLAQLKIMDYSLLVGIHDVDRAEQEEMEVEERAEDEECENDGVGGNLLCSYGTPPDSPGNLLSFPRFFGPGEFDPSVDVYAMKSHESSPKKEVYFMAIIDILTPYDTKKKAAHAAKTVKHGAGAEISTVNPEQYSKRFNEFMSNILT
Summary of the method: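 Purified GST-PIP4KIIB (5 nM final), 1 h preincubation with compound at 27 C, then 2 h reaction with 100 uM GTP and 80 uM PI5P plus DOPE carrier lipid in pH 7.3 HEPES/MgCl2/Triton buffer with 5% DMSO. GDP read by Transcreener FI fluorescence against a calibration curve; IC50 from % no-inhibitor activity vs log concentration.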

Compound `CC(C)n1cnnc1-c1ccc(-c2cncc(-c3ccnc4c3cc3n4CCN(C)C3=O)c2)cc1` [Example 384, 4-(5-(4-(4-isopropyl-4H-1,2,4-triazol-3-yl)phenyl)pyridin-3-yl)-7-methyl-8,9-dihydropyrido[3′,2′:4,5]pyrrolo[1,2-a]pyrazin-6(7H)-one] has an IC50 [1] of 0.1 to 1 µM, an IC50 [2] of 0.1 to 1 µM and an IC50 [3] of 0.01 to 0.1 µM.
Work on `CNC(=O)c1cc2c(-c3cncc(-c4ccc(N5CCCC5=O)cc4)c3C)ccnc2o1` [Example 174, N-methyl-4-(4-methyl-5-(4-(2-oxopyrrolidin-1-yl)phenyl)pyridin-3-yl)furo[2,3-b]pyridine-2-carboxamide] yielded an IC50 [1] of 0.005 to 0.1 µM, an IC50 [2] of 0.1 to 1 µM and an IC50 [3] of 0.1 to 1 µM.
`Cc1cc(N2CCCC2=O)ccc1-c1cncc(-c2cn(C)c3ncc(C(C)(C)O)cc23)c1` [Example 168, 1-(4-(5-(5-(2-hydroxypropan-2-yl)-1-methyl-1H-pyrrolo[2,3-b]pyridin-3-yl)pyridin-3-yl)-3-methylphenyl)pyrrolidin-2-one] showed an IC50 [1] of 0.1 to 1 µM, an IC50 [2] of 2.5 to 5 µM and an IC50 [3] of 2.5 to 5 µM.
With `CN1CCn2c(cc3c(-c4cncc(-c5ccc(N6CCCCC6=O)cc5)c4)ccnc32)C1=O` [Example 346, 7-methyl-4-(5-(4-(2-oxopiperidin-1-yl)phenyl)pyridin-3-yl)-8,9-dihydropyrido[3′,2′:4,5]pyrrolo[1,2-a]pyrazin-6(7H)-one] the IC50 [1] was 0.1 to 1 µM, the IC50 [2] was 0.1 to 1 µM and the IC50 [3] was 0.1 to 1 µM.
With `CN(C)C(=O)c1ccc(-c2cncc(-c3cnc4c(ccn4C)c3)c2)cc1` [Example 6, N,N-dimethyl-4-(5-(1-methyl-1H-pyrrolo[2,3-b]pyridin-5-yl)pyridin-3-yl)benzamide] the IC50 [1] was 1 to 2.5 µM, the IC50 [2] was > 5 µM and the IC50 [3] was > 5 µM.
In the case of `Nc1ncc(-c2ccnc3[nH]c(C(=O)NCc4ccccc4)cc23)cc1-c1ccc(C(=O)NCc2ccccc2)cn1` [Example 221, 4-(2′-amino-5-(benzylcarbamoyl)-[2,3′-bipyridin]-5′-yl)-N-benzyl-1H-pyrrolo[2,3-b]pyridine-2-carboxamide], the IC50 [1] is reported as < 5 µM, the IC50 [2] is reported as > 5 µM and the IC50 [3] is reported as 1 to 2.5 µM.
`O=C1NCCn2c1cc1c(-c3cncc(-c4ccc(N5CCCC5=O)cc4)c3)ccnc12` [Example 45, 4-(5-(4-(2-oxopyrrolidin-1-yl)phenyl)pyridin-3-yl)-8,9-dihydropyrido[3′,2′:4,5]pyrrolo[1,2-a]pyrazin-6(7H)-one] gave an IC50 [1] of 0.005 to 0.1 µM, an IC50 [2] of 0.1 to 1 µM and an IC50 [3] of 0.01 to 0.1 µM.
`Cn1cc(-c2cncc(-c3ccc(N4CCCC4=O)cc3)c2)c2cnn(C)c2c1=O` [Example 55, 1,6-dimethyl-4-(5-(4-(2-oxopyrrolidin-1-yl)phenyl)pyridin-3-yl)-1,6-dihydro-7H-pyrazolo[3,4-c]pyridin-7-one] gave an IC50 [1] of 0.005 to 0.1 µM, an IC50 [2] of 0.1 to 1 µM and an IC50 [3] of 0.1 to 1 µM.
`Cn1cc(-c2cncc(-c3ccc(N4CCCC4=O)cc3)c2)c2cccnc21` [Example 39, 1-(4-(5-(1-methyl-1H-pyrrolo[2,3-b]pyridin-3-yl)pyridin-3-yl)phenyl)pyrrolidin-2-one] showed an IC50 [1] of 0.005 to 0.1 µM, an IC50 [2] of 0.1 to 1 µM and an IC50 [3] of 0.1 to 1 µM.
`CN(C)C(=O)c1ccc(-c2cc(-c3ccnc4[nH]c(C(=O)NCc5ccccc5)cc34)cnc2N)nc1` [Example 134, 4-(2′-amino-5-(dimethylcarbamoyl)-[2,3′-bipyridin]-5′-yl)-N-benzyl-1H-pyrrolo[2,3-b]pyridine-2-carboxamide] showed an IC50 [1] of 0.005 to 0.1 µM, an IC50 [2] of 0.1 to 1 µM and an IC50 [3] of 0.01 to 0.1 µM.
With `Nc1ncc(-c2cccc3nccn23)cc1-c1ccc(N2CCCC2=O)cn1` [Example 25, 1-(2′-amino-5′-(imidazo[1,2-a]pyridin-5-yl)-[2,3′-bipyridin]-5-yl)pyrrolidin-2-one] the IC50 [1] was 1 to 2.5 µM, the IC50 [2] was 2.5 to 5 µM and the IC50 [3] was > 5 µM.
With `Nc1ncc(-c2cccc3ncsc23)cc1-c1ccc(N2CCCC2=O)cn1` [Example 24, 1-(2′-amino-5′-(benzo[d]thiazol-7-yl)-[2,3′-bipyridin]-5-yl)pyrrolidin-2-one] the IC50 [1] was 0.1 to 1 µM, the IC50 [2] was 1 to 2.5 µM and the IC50 [3] was 1 to 2.5 µM.
`O=C1CCCN1c1ccc(-c2cncc(-c3ccnc4c3OCCO4)c2)cc1` [Example 40, 1-[4-[5-(2,3-Dihydro-[1,4]dioxino[2,3-b]pyridin-8-yl)-3-pyridyl]phenyl]pyrrolidin-2-one] showed an IC50 [1] of 0.1 to 1 µM, an IC50 [2] of 2.5 to 5 µM and an IC50 [3] of 1 to 2.5 µM.
Compound `CN(C)C(=O)c1ccc(-c2cc(-c3cnc4c(c3)c(-c3cncs3)cn4C)cnc2N)nc1` [Example 125, 2′-amino-N,N-dimethyl-5′-(1-methyl-3-(thiazol-5-yl)-1H-pyrrolo[2,3-b]pyridin-5-yl)-[2,3′-bipyridine]-5-carboxamide] has an IC50 [1] of 0.1 to 1 µM, an IC50 [2] of 0.001 to 0.01 µM and an IC50 [3] of 2.5 to 5 µM.
In the case of `CN(C)C(=O)c1ccc(-c2cc(-c3ccnc4[nH]c(C(=O)N5CC(O)C5)cc34)cnc2N)nc1` [Example 129, 2′-amino-5′-(2-(3-hydroxyazetidine-1-carbonyl)-1H-pyrrolo[2,3-b]pyridin-4-yl)-N,N-dimethyl-[2,3′-bipyridine]-5-carboxamide], the IC50 [1] is reported as 0.1 to 1 µM, the IC50 [2] is reported as 0.1 to 1 µM and the IC50 [3] is reported as 0.1 to 1 µM.
`Nc1ncc(-c2ccnc3c2cc2n3CCN(CC3CC3)C2=O)cc1-c1ccc(N2CCCC2=O)cc1` [Example 88, 4-(6-amino-5-(4-(2-oxopyrrolidin-1-yl)phenyl)pyridin-3-yl)-7-(cyclopropylmethyl)-8,9-dihydropyrido[3′,2′:4,5]pyrrolo[1,2-a]pyrazin-6(7H)-one] showed an IC50 [1] of 0.005 to 0.1 µM, an IC50 [2] of 0.01 to 0.1 µM and an IC50 [3] of 0.001 to 0.01 µM.
For `CN(CC1CCCNC1)C(=O)c1ccc(-c2cncc(-c3ccncc3)c2)cc1` (stereo not drawn) [Example 180, 4-([3,4′-bipyridin]-5-yl)-N-methyl-N-(piperidin-3-ylmethyl)benzamide], the IC50 [1] was < 5 µM, the IC50 [2] was > 5 µM and the IC50 [3] was > 5 µM.
`CN(C)C(=O)c1ccc(-c2cc(-c3[nH]nc4ncncc34)cnc2N)nc1` [Example 214, 2′-amino-N,N-dimethyl-5′-(2H-pyrazolo[3,4-d]pyrimidin-3-yl)-[2,3′-bipyridine]-5-carboxamide] showed an IC50 [1] of 0.1 to 1 µM, an IC50 [2] of 0.1 to 1 µM and an IC50 [3] of 0.1 to 1 µM.
With `CN(C)C(=O)c1ccc(-c2cncc(-c3c[nH]c4ncc(Cl)cc34)c2)cc1` [Example 12, 4-(5-(5-chloro-1H-pyrrolo[2,3-b]pyridin-3-yl)pyridin-3-yl)-N,N-dimethylbenzamide] the IC50 [1] was 0.005 to 0.1 µM, the IC50 [2] was 0.1 to 1 µM and the IC50 [3] was 0.1 to 1 µM.
For `O=C1CCCN1c1ccc(-c2cncc(-c3ccc(=O)[nH]c3)c2)cc1` [Example 36, 5′-(4-(2-oxopyrrolidin-1-yl)phenyl)-[3,3′-bipyridin]-6(1H)-one], the IC50 [1] was 1 to 2.5 µM, the IC50 [2] was > 5 µM and the IC50 [3] was 2.5 to 5 µM.
In the case of `CN(C)C(=O)c1ccc(-c2cc(-c3ccnc(CNC(=O)c4cccc(NC(=O)OC(C)(C)C)c4)c3)cnc2N)nc1` [Example 190, tert-butyl (3-(((2′-amino-5-(dimethylcarbamoyl)-[2,3′:5′,4″-terpyridin]-2″-yl)methyl)carbamoyl)phenyl)carbamate], the IC50 [1] is reported as 2.5 to 5 µM, the IC50 [2] is reported as > 5 µM and the IC50 [3] is reported as > 5 µM.
`O=C1CCCN1c1ccc(-c2cncc(-c3cn(CC4CCOCC4)c(=O)c4[nH]ncc34)c2)cc1` [Example 69, 4-(5-(4-(2-oxopyrrolidin-1-yl)phenyl)pyridin-3-yl)-6-((tetrahydro-2H-pyran-4-yl)methyl)-1,6-dihydro-7H-pyrazolo[3,4-c]pyridin-7-one] gave an IC50 [1] of 0.005 to 0.1 µM, an IC50 [2] of 1 to 2.5 µM and an IC50 [3] of 0.1 to 1 µM.
`O=C1CCCN1c1ccc(-c2cncc(-c3c(OC4CCCNC4)cnc4[nH]ccc34)c2)cc1` (stereo not drawn) [Example 66, 1-(4-(5-(5-(piperidin-3-yloxy)-1H-pyrrolo[2,3-b]pyridin-4-yl)pyridin-3-yl)phenyl)pyrrolidin-2-one] was tested, and the IC50 [1] was < 5 µM, the IC50 [2] was > 5 µM and the IC50 [3] was > 5 µM.
